ChEMBL document CHEMBL1201862, “PubChem BioAssay data set” (2004)
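Tested at 5 concentrations; 48 h exposure; 96-well plates; endpoints linearly interpolated, else capped at highest concentration. At the GI50, growth is halved.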 The source made the active and inactive calls. Rule as the data show it: active = GI50 up to about 1.1 µM and inactive = higher.

How the values were obtained:
Assay in all cases: growth of human tumour cells (NCI), 48 h
LOX IMVI = test system: LOX IMVI
SNB-19 = test system: SNB-19
SK-MEL-28 = test system: SK-MEL-28
COLO 205 = test system: COLO 205
OVCAR-8 = test system: OVCAR-8
MDA-MB-435 = test system: MDA-MB-435
SK-MEL-2 = test system: SK-MEL-2
PC-3 = test system: PC-3
SNB-75 = test system: SNB-75
MDA-N = test system: MDA-N
SF-268 = test system: SF-268
BT-549 = test system: BT-549
HCT-116 = test system: HCT-116
NCI-H23 = test system: NCI-H23
SF-539 = test system: SF-539
IGROV-1 = test system: IGROV-1
U-251 = test system: U-251
NCI-H522 = test system: NCI-H522
HOP-92 = test system: HOP-92
MOLT-4 = test system: MOLT-4
EKVX = test system: EKVX
ACHN = test system: ACHN
SW-620 = test system: SW-620
HL-60 = test system: HL-60
MCF7 = test system: MCF7
RPMI-8226 = test system: RPMI-8226
CCRF-CEM = test system: CCRF-CEM
M14 = test system: M14
HCT-15 = test system: HCT-15
A549 = test system: A549
HT-29 = test system: HT-29
786-0 = test system: 786-0
MDA-MB-231 = test system: MDA-MB-231
Hs-578T = test system: Hs-578T
TK-10 = test system: TK-10
NCI/ADR-RES = test system: NCI/ADR-RES
SK-MEL-5 = test system: SK-MEL-5
UACC-62 = test system: UACC-62
A498 = test system: A498
SR = test system: SR
SN12C = test system: SN12C
HCC 2998 = test system: HCC 2998
NCI-H460 = test system: NCI-H460
K562 = test system: K562
OVCAR-5 = test system: OVCAR-5
UO-31 = test system: UO-31
UACC-257 = test system: UACC-257
Malme-3M = test system: Malme-3M
NCI-H226 = test system: NCI-H226

Structure (SMILES): COc1ccc(C2CC(c3cc4c(C)c(C(=O)c5ccccc5)oc4cc3O)=Nc3ccccc3S2)cc1OC (centres undefined)
- GI50 (LOX IMVI): > 100 µM (inactive)
- GI50 (SNB-19): 48.8 µM (inactive)
- GI50 (SK-MEL-28): > 100 µM (inactive)
- GI50 (COLO 205): > 100 µM (inactive)
- GI50 (OVCAR-8): > 100 µM (inactive)
- GI50 (MDA-MB-435): 0.733 µM (active)
- GI50 (SK-MEL-2): > 59.2 µM (inactive)
- GI50 (PC-3): > 100 µM (inactive)
- GI50 (SNB-75): 73.6 µM (inactive)
- GI50 (MDA-N): > 40.2 µM (inactive)
- GI50 (SF-268): > 42.7 µM (inactive)
- GI50 (BT-549): > 56.5 µM (inactive)
- GI50 (HCT-116): > 90.4 µM (inactive)
- GI50 (NCI-H23): 52.7 µM (inactive)
- GI50 (SF-539): > 50 µM (inactive)
- GI50 (IGROV-1): 55.8 µM (inactive)
- GI50 (U-251): > 65 µM (inactive)
- GI50 (NCI-H522): 19.1 µM (inactive)
- GI50 (HOP-92): 20.3 µM (inactive)
- GI50 (MOLT-4): > 100 µM (inactive)
- GI50 (EKVX): 28.2 µM (inactive)
- GI50 (ACHN): > 65.8 µM (inactive)
- GI50 (SW-620): > 84.7 µM (inactive)
- GI50 (HL-60): 9.82 µM (inactive)
- GI50 (MCF7): > 64 µM (inactive)
- GI50 (RPMI-8226): > 91.6 µM (inactive)
- GI50 (CCRF-CEM): 70.8 µM (inactive)
- GI50 (M14): > 57.1 µM (inactive)
- GI50 (HCT-15): > 73.1 µM
- GI50 (A549): 96.8 µM (inactive)
- GI50 (HT-29): > 100 µM (inactive)
- GI50 (786-0): 47.6 µM (inactive)
- GI50 (MDA-MB-231): > 87.3 µM (inactive)
- GI50 (Hs-578T): 25.8 µM (inactive)
- GI50 (TK-10): > 77.1 µM (inactive)
- GI50 (NCI/ADR-RES): > 58.1 µM (inactive)
- GI50 (SK-MEL-5): > 56.5 µM (inactive)
- GI50 (UACC-62): > 51.4 µM (inactive)
- GI50 (A498): > 57.5 µM (inactive)
- GI50 (SR): 52.5 µM (inactive)
- GI50 (SN12C): > 100 µM (inactive)
- GI50 (HCC 2998): > 100 µM (inactive)
- GI50 (NCI-H460): > 100 µM (inactive)
- GI50 (K562): > 72.9 µM (inactive)
- GI50 (OVCAR-5): > 100 µM (inactive)
- GI50 (UO-31): > 100 µM (inactive)
- GI50 (UACC-257): > 100 µM (inactive)
- GI50 (Malme-3M): 25.8 µM (inactive)
- GI50 (NCI-H226): > 100 µM (inactive)
